Target: T1, human GluN1/GluN2B NMDA receptors (Homo sapiens, UniProt Q13224)
T1 construct: expressed in transfected cells
Experiment: Calcium flux (FLIPR) assay on cloned human NR1/GluN2B ion channels expressed in mammalian cells (standard and HTS variants)
Type: cell-based
Settings: cells expressing human GluN1/GluN2B, glutamate and glycine co-agonists
Procedure: Effects of Test Articles on Cloned Human NR1/GuN2B Ion Channels Expressed in Mammalian Cells
NMDA receptors are ion channels that are highly permeable to Ca^2+ ions, rendering it possible to monitor NMDA receptor function using cell-based calcium flux assay. In this assay, co-agonists glutamate and glycine are added to cells heterologously expressing human GluN1/GluN2B NMDA receptors to initiate cellular Ca^2+ influx. The time course of the changes in intracellular calcium is measured using a fluorescent dye and a FLIPR (Fluorometric Imaging Plate Reader) device.
Twenty-four hours before measurements, the expression of the NMDA receptors in the stable cell line is induced with Tet-On inducible system in the presence of a non-selective NMDA receptor blocker. On the day of the experiment, cell culture media is carefully washed, and the cells are loaded with Calcium 5 Dye Kit (Molecular Devices) in dye loading buffer containing 137 mM NaCl, 4 mM KCl, 2 mM CaCl2, 0.5 mM MgCl2 (standard assay) or 1.5 mM MgCl2 (HTS assay), 10 mM HEPES and 5 mM D-glucose; pH 7.4. After 1 h incubation at the room temperature, the dye is washed away with the assay buffer (137 mM NaCl (standard assay) or 150 mM (HTS assay), 4 mM KCl (standard assay) or 3 mM (HTS assay), 2 mM CaCl2), 0.01 mM EDTA, 10 mM HEPES and 5 mM D-glucose; pH 7.4) In the FLIPR TETRA reader, various concentrations of the test compounds are added to the cells for 5 min while fluorescence is monitored to detect potential agonist activity. Next, co-agonists, glutamate and glycine are added for another 5 minutes. The concentration of glutamate corresponding to ˜EC40 (standard assay) or EC40 (HTS assay) is used to maximize the assay's signal window and ability to detect NMDA receptor antagonists and negative allosteric modulators. A saturating concentration (10 μM) of glycine is also present in the assay. A non-selective NMDA receptor antagonist, (+)MK-801 is used as a positive control for antagonist activity. The fluorescent signal in the presence of test compounds is quantified and normalized to the signal defined by the appropriate control wells.

T1 sequence (Q13224 27-1484, other chains not shown): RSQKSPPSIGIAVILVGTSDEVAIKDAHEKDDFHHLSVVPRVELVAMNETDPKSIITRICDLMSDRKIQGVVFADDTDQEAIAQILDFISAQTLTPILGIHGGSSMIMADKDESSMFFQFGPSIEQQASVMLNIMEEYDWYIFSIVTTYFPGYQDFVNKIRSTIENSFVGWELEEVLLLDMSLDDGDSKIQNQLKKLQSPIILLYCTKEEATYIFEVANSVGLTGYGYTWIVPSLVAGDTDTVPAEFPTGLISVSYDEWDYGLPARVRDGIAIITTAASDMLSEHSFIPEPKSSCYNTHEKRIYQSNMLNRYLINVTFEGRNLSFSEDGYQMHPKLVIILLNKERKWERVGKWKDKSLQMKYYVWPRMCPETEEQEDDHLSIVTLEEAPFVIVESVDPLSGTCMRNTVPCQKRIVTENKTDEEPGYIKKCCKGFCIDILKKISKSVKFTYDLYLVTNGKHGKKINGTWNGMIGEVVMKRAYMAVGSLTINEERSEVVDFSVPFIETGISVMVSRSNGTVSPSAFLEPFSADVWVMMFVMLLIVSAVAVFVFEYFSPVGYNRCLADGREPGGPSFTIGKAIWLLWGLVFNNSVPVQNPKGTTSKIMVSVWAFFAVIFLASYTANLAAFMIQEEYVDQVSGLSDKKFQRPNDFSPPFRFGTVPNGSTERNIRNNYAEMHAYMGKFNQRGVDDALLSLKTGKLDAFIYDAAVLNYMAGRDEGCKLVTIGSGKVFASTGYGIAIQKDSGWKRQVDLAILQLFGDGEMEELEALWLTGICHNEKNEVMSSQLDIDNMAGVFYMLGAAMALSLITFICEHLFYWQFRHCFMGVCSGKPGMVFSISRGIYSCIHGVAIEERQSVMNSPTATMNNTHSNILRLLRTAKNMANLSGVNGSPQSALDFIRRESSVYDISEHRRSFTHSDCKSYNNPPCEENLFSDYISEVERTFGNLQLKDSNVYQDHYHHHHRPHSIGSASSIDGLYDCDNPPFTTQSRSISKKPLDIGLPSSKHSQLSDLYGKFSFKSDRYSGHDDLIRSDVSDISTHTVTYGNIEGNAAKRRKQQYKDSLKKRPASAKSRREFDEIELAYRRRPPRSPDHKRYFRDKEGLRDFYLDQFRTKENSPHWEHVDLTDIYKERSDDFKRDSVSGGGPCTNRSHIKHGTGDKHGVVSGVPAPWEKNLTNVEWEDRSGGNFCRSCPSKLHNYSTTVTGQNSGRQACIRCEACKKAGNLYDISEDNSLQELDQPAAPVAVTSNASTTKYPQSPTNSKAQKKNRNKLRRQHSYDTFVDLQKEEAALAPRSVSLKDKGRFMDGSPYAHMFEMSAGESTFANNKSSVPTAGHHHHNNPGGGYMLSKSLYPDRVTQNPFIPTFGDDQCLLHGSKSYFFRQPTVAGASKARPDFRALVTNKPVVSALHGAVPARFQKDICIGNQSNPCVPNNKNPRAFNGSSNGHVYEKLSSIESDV

Row | Structure (SMILES) | IC50 [µM]
1 | Cc1cc(Cn2ncc3ncc(-c4cccc(C(F)(F)F)c4)cc32)n(C)n1 [Example 37, 1-[(2,5-Dimethylpyrazol-3-yl)methyl]-6-[3-(trifluoromethyl)phenyl]pyrazolo[4,3-b]pyridine] | 3.95
2 | Fc1ccc(-c2cnc3cnn(Cc4cn[nH]c4)c3c2)cc1C(F)F [Example 38, 6-[3-(Difluoromethyl)-4-fluoro-phenyl]-1-(1H-pyrazol-4-ylmethyl)pyrazolo[4,3-b]pyridine] | 0.226
3 | Cn1ccc(Cn2ncc3ncc(-c4ccc(F)c(C(F)F)c4)cc32)n1 [Example 39, 6-[3-(Difluoromethyl)-4-fluoro-phenyl]-1-[(1-methylpyrazol-3-yl)methyl]pyrazolo[4,3-b]pyridine] | 0.271
4 | FC(F)Oc1cc(-c2cnc3cnn(Cc4cn[nH]c4)c3c2)ccc1Cl [Example 41, 6-[4-Chloro-3-(difluoromethoxy)phenyl]-1-(1H-pyrazol-4-ylmethyl)pyrazolo[4,3-b]pyridine] | 0.423
5 | Cc1cc(Cn2ncc3ncc(-c4ccc(F)cc4)cc32)on1 [Example 42, 5-[[6-(4-Fluorophenyl)pyrazolo[4,3-b]pyridin-1-yl]methyl]-3-methyl-isoxazole] | 0.475
6 | Cc1cc(Cn2ncc3ncc(-c4ccc(F)cc4)cc32)no1 [Example 43, 3-[[6-(4-Fluorophenyl)pyrazolo[4,3-b]pyridin-1-yl]methyl]-5-methyl-isoxazole] | 0.139
7 | FC(F)(F)c1cccc(-c2cnc3cnn(Cc4ccon4)c3c2)c1 [Example 44, 3-[[6-[3-(Trifluoromethyl)phenyl]pyrazolo[4,3-b]pyridin-1-yl]methyl]isoxazole] | 0.165
8 | Cc1cc(Cn2ncc3ncc(-c4cccc(C(C)(F)F)c4)cc32)no1 [Example 45, 3-[[6-[3-(1,1-Difluoroethyl)phenyl]pyrazolo[4,3-b]pyridin-1-yl]methyl]-5-methyl-isoxazole] | 0.044
9 | FC(F)(F)c1cccc(-c2cnc3cnn(Cc4cocn4)c3c2)c1 [Example 46, 4-[[6-[3-(Trifluoromethyl)phenyl]pyrazolo[4,3-b]pyridin-1-yl]methyl]oxazole] | 0.538
10 | Cc1cc(Cn2ncc3ncc(-c4cccc(C(F)(F)F)c4)cc32)no1 [Example 47, 5-Methyl-3-[[6-[3-(trifluoromethyl)phenyl]pyrazolo[4,3-b]pyridin-1-yl]methyl]isoxazole] | 0.148
11 | Cc1ncc(Cn2ncc3ncc(-c4ccc(F)c(C)c4)cc32)o1 [Example 48, 5-[[6-(4-Fluoro-3-methyl-phenyl)pyrazolo[4,3-b]pyridin-1-yl]methyl]-2-methyl-oxazole] | 0.113
12 | Cc1cnc(Cn2ncc3ncc(-c4ccc(F)c(C)c4)cc32)o1 [Example 49, 2-[[6-(4-Fluoro-3-methyl-phenyl)pyrazolo[4,3-b]pyridin-1-yl]methyl]-5-methyl-oxazole] | 0.053
13 | Fc1ccc(-c2cnc3cnn(Cc4ccno4)c3c2)cc1C(F)F [Example 50, 5-[[6-[3-(Difluoromethyl)-4-fluoro-phenyl]pyrazolo[4,3-b]pyridin-1-yl]methyl]isoxazole] | 0.031
14 | Fc1ccc(-c2cnc3cnn(Cc4ccon4)c3c2)cc1C(F)F [Example 51, 3-[[6-[3-(Difluoromethyl)-4-fluoro-phenyl]pyrazolo[4,3-b]pyridin-1-yl]methyl]isoxazole] | 0.023
15 | Cc1cc(Cn2ncc3ncc(-c4ccc(F)c(C(F)F)c4)cc32)no1 [Example 53, 3-[[6-[3-(Difluoromethyl)-4-fluoro-phenyl]pyrazolo[4,3-b]pyridin-1-yl]methyl]-5-methyl-isoxazole] | 0.018
16 | Cc1ncc(Cn2ncc3ncc(-c4ccc(F)c(C(F)F)c4)cc32)o1 [Example 54, 5-[[6-[3-(Difluoromethyl)-4-fluoro-phenyl]pyrazolo[4,3-b]pyridin-1-yl]methyl]-2-methyl-oxazole] | 0.133
17 | Cc1nc(Cn2ncc3ncc(-c4ccc(F)c(C(F)F)c4)cc32)co1 [Example 55, 4-[[6-[3-(Difluoromethyl)-4-fluoro-phenyl]pyrazolo[4,3-b]pyridin-1-yl]methyl]-2-methyl-oxazole] | 0.285
18 | Cc1noc(C)c1Cn1ncc2ncc(-c3ccc(F)c(C(F)F)c3)cc21 [Example 57, 4-[[6-[3-(Difluoromethyl)-4-fluoro-phenyl]pyrazolo[4,3-b]pyridin-1-yl]methyl]-3,5-dimethyl-isoxazole] | 0.082
19 | Cc1cc(Cn2ncc3ncc(-c4ccc(F)c(C(C)(F)F)c4)cc32)no1 [Example 58, 3-[[6-[3-(1,1-Difluoroethyl)-4-fluoro-phenyl]pyrazolo[4,3-b]pyridin-1-yl]methyl]-5-methyl-isoxazole] | 0.158
20 | Cc1cc(Cn2ncc3ncc(-c4ccc(F)c(OC(F)F)c4)cc32)no1 [Example 59, 3-[[6-[3-(Difluoromethoxy)-4-fluoro-phenyl]pyrazolo[4,3-b]pyridin-1-yl]methyl]-5-methyl-isoxazole] | 0.061
21 | Cc1ncc(Cn2ncc3ncc(-c4ccc(F)c(OC(F)F)c4)cc32)o1 [Example 60, 5-[[6-[3-(Difluoromethoxy)-4-fluoro-phenyl]pyrazolo[4,3-b]pyridin-1-yl]methyl]-2-methyl-oxazole] | 0.559
22 | Cc1cnc(Cn2ncc3ncc(-c4ccc(F)c(OC(F)F)c4)cc32)o1 [Example 61, 2-[[6-[3-(Difluoromethoxy)-4-fluoro-phenyl]pyrazolo[4,3-b]pyridin-1-yl]methyl]-5-methyl-oxazole] | 0.16

Other lines, results leading:

Row | IC50 [µM] | Structure (SMILES)
23 | 0.159 | Cc1cc(Cn2ncc3ncc(-c4ccc(Cl)c(OC(F)F)c4)cc32)no1 [Example 62, 3-[[6-[4-Chloro-3-(difluoromethoxy)phenyl]pyrazolo[4,3-b]pyridin-1-yl]methyl]-5-methyl-isoxazole]
24 | 0.268 | Cc1ncc(Cn2ncc3ncc(-c4ccc(F)c(C)c4F)cc32)o1 [Example 63, 5-[[6-(2,4-Difluoro-3-methyl-phenyl)pyrazolo[4,3-b]pyridin-1-yl]methyl]-2-methyl-oxazole]
25 | 2.24 | Cc1cc(Cn2ncc3ncc(-c4cccc(C(F)(F)F)c4)cc32)ns1 [Example 64, 5-Methyl-3-[[6-[3-(trifluoromethyl)phenyl]pyrazolo[4,3-b]pyridin-1-yl]methyl]isothiazole]
26 | 0.084 | Cc1cnc(Cn2ncc3ncc(-c4ccc(F)c(C(F)F)c4)cc32)s1 [Example 65, 2-[[6-[3-(Difluoromethyl)-4-fluoro-phenyl]pyrazolo[4,3-b]pyridin-1-yl]methyl]-5-methyl-thiazole]
27 | 0.41 | Cc1csc(Cn2ncc3ncc(-c4ccc(F)c(C(F)F)c4)cc32)n1 [Example 66, 2-[[6-[3-(Difluoromethyl)-4-fluoro-phenyl]pyrazolo[4,3-b]pyridin-1-yl]methyl]-4-methyl-thiazole]
28 | 0.466 | Cc1nc(Cn2ncc3ncc(-c4ccc(F)c(C(F)F)c4)cc32)cs1 [Example 67, 4-[[6-[3-(Difluoromethyl)-4-fluoro-phenyl]pyrazolo[4,3-b]pyridin-1-yl]methyl]-2-methyl-thiazole]
29 | 0.265 | Cc1cnc(Cn2ncc3ncc(-c4ccc(F)c(C)c4)cc32)s1 [Example 68, 2-[[6-(4-Fluoro-3-methyl-phenyl)pyrazolo[4,3-b]pyridin-1-yl]methyl]-5-methyl-thiazole]
30 | 0.104 | Cc1cnc(Cn2ncc3ncc(-c4ccc(F)c(OC(F)F)c4)cc32)s1 [Example 69, 2-[[6-[3-(Difluoromethoxy)-4-fluoro-phenyl]pyrazolo[4,3-b]pyridin-1-yl]methyl]-5-methyl-thiazole]
31 | 0.35 | Cc1cnc(Cn2ncc3ncc(-c4ccc(F)c(C)c4F)cc32)s1 [Example 70, 2-[[6-(2,4-Difluoro-3-methyl-phenyl)pyrazolo[4,3-b]pyridin-1-yl]methyl]-5-methyl-thiazole]
32 | 0.891 | Cn1cnc(Cn2ncc3ncc(-c4cccc(C(F)(F)F)c4)cc32)n1 [Example 71, 1-[(1-Methyl-1,2,4-triazol-3-yl)methyl]-6-[3-(trifluoromethyl)phenyl]pyrazolo[4,3-b]pyridine]
33 | 0.827 | Cn1cc(Cn2ncc3ncc(-c4ccc(F)c(OC(F)F)c4)cc32)nn1 [Example 72, 6-[3-(Difluoromethoxy)-4-fluoro-phenyl]-1-[(1-methyltriazol-4-yl)methyl]pyrazolo[4,3-b]pyridine]
34 | 0.383 | Cn1cnc(Cn2ncc3ncc(-c4ccc(F)c(C(F)F)c4)cc32)n1 [Example 73, 6-[3-(Difluoromethyl)-4-fluoro-phenyl]-1-[(1-methyl-1,2,4-triazol-3-yl)methyl]pyrazolo[4,3-b]pyridine]
35 | 0.111 | Cn1cnnc1Cn1ncc2ncc(-c3ccc(F)c(C(F)F)c3)cc21 [Example 74, 6-[3-(Difluoromethyl)-4-fluoro-phenyl]-1-[(4-methyl-1,2,4-triazol-3-yl)methyl]pyrazolo[4,3-b]pyridine]

Reference: patent publication US11530210B2, “Substituted heteroaromatic pyrazolo-pyridines and their use as GLUN2B receptor modulators” (JANSSEN PHARMACEUTICA NV, priority 2019, dated 2022)
